Data on 11 compounds can be found in ChEMBL document CHEMBL1127121, “Benzofuran based angiotensin II antagonists related to GR117289: Part III; GR138950, a triflamide with high oral bioavailability” (Bioorg Med Chem Lett, 1993).

The target of series [1] is T1, Type-1 angiotensin II receptor (Oryctolagus cuniculus) (UniProt P34976).
T1 sequence (whole entry): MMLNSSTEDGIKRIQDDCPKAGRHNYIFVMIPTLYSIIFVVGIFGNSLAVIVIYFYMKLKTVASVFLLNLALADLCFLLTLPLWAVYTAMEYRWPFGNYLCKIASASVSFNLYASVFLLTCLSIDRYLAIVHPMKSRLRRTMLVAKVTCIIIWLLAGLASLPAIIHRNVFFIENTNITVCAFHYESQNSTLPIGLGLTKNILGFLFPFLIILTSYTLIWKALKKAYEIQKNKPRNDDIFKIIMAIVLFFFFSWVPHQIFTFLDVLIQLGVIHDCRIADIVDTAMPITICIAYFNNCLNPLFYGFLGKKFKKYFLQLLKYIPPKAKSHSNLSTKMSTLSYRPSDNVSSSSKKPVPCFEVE
Description: Affinity for Angiotensin II receptor, type 1 by measuring its ability to antagonise the contractile effect of AngII in rabbit isolated thoracic aorta. The series is classed as functional, tissue-based.

Series [2] can be described thus: Bioavailability in rat. The series is classed as ADME, organism-based. To be noted: in vivo.
Series [3] in a line: The compound was evaluated for plasma half life period in rat. The series is classed as ADME, organism-based.
The nature of series [4]: The compound was evaluated for volume of distribution in rat. Conditions: in vivo. The format is ADME, organism-based.
Series [5] in a line: The compound was evaluated for plasma clearance in rat. The series is classed as ADME, organism-based. Conditions: read-out: Clp.

Molecules are shown by their SMILES. A value given as a limit tells only on which side of the number the result lay.

Take `CCc1nc(CC(C)C)c(C(=O)NC)n1Cc1ccc2oc(-c3ccccc3NS(=O)(=O)C(F)(F)F)c(Br)c2c1`: the pKB in series [1] was less than 8.
Same read-out and setting: to `CCc1nc(C)c(C(=O)NCC(F)(F)F)n1Cc1ccc2oc(-c3ccccc3NS(=O)(=O)C(F)(F)F)c(Br)c2c1` belongs 9.2.
On to `CCc1nc(C2CC2)c(C(N)=O)n1Cc1ccc2oc(-c3ccccc3NS(=O)(=O)C(F)(F)F)c(Br)c2c1` [SAPRISARTAN], for which, in series [1], the pKB is 9. In addition, the bioavailability in series [2] was determined as 79%. The same compound gave a half-life in series [3] of 192 min. The compound further had a Vd in series [4] of 2.4 L/kg. For the same compound, the clearance in series [5] worked out at 8.9 mL/min/kg.
On to `CCc1nc(C2CC2)c(C(=O)NC)n1Cc1ccc2oc(-c3ccccc3NS(=O)(=O)C(F)(F)F)c(Br)c2c1`, for which the pKB in series [1] came out at 9.7.
In the case of `CCc1nc(C(C)C)c(C(=O)NC)n1Cc1ccc2oc(-c3ccccc3NS(=O)(=O)C(F)(F)F)c(Br)c2c1`, in series [1], the negative logarithm of the KB (pKB) amounted to 8.1.
In series [1], `CCc1nc(C)c(C(=O)NC)n1Cc1ccc2oc(-c3ccccc3NS(=O)(=O)C(F)(F)F)c(Br)c2c1` displayed a pKB of 9. Besides, the bioavailability in series [2] was found to be 95%. The half-life in series [3] was 72 min. The Vd in series [4] turned out to be 4.3 L/kg. In addition, the clearance in series [5] turned out to be 42 mL/min/kg.
`CCNC(=O)c1c(C)nc(CC)n1Cc1ccc2oc(-c3ccccc3NS(=O)(=O)C(F)(F)F)c(Br)c2c1` showed a pKB in series [1] of 9.5.
The same measure, in the same setting: to `CCc1nc(C)c(C(=O)N(C)C)n1Cc1ccc2oc(-c3ccccc3NS(=O)(=O)C(F)(F)F)c(Br)c2c1` belongs 9.1; to `CCc1nc(C)c(C(N)=O)n1Cc1ccc2oc(-c3ccccc3NS(=O)(=O)C(F)(F)F)c(Br)c2c1`, 9; to `CCc1nc(CC)n(Cc2ccc3oc(-c4ccccc4NS(=O)(=O)C(F)(F)F)c(Br)c3c2)c1C(=O)NC`, 9.
The compound `CCCCc1nc(Cl)c(C(=O)O)n1Cc1ccc2oc(-c3ccccc3-c3nn[nH]n3)c(Br)c2c1` [ZOLASARTAN] showed a bioavailability in series [2] of 3%. The compound further had a half-life in series [3] of 480 min. This compound registered a Vd in series [4] of 0.5 L/kg. The clearance in series [5] turned out to be 0.8 mL/min/kg.

As usually defined, the pKB is the KB on a negative log10 scale, so that one unit is a factor of ten. As usually defined, the bioavailability is the share of a dose that reaches the circulation, judged against a reference dose that is usually intravenous. High values mean much systemic uptake, low ones little systemic uptake. The term half-life denotes the time needed for the level to fall by half in the phase considered. High values mean slow decline, low ones rapid decline. One may read the Vd as the apparent volume that relates the amount in the body to the concentration in plasma or blood. Higher therefore signals wide distribution into tissue.
